Tests used:
Caenorhabditis elegans [1] = assay: HTS runs (initial and follow-up): mOD, % Run and visual score (Table 3); format: in vivo
Protocol: The nematicidal activity of anthelmintic Compositions 48-118 were determined in accordance with the procedure outlined in Example 2.

Caenorhabditis elegans [2] = assay: C. elegans L1 larvae dose-response, 5 day visual viability score (Examples 2 and 7); format: in vivo; set-up: key: Dead: only stiff L1s (no movement); Dead (L4): worms are dead, but at a later larval stage; majority of worms are L1 (based on size); majority of worms are L2 (based on size); majority of worms are L3 (based on size); majority of worms are L4 (based on size); AD: majority of worms are adult; #AD: 5 adult worms or less; B!: sterile (0-25 progeny); B: low broodsize (25-100 progeny); ˜B: moderate broodsize (100-250 progeny); <: reduced broodsize (250-500 progeny); OK: no effect (˜1000+ progeny); details: day 5, Table 3
Outline: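 Twenty L1 larvae per well in NGM with E. coli HB101 were exposed to six 3-fold dilutions from 70 μM to 0.3 μM, 1.4% DMSO final, at 20° C. Day-5 viability was scored visually under a dissecting microscope by developmental stage, adult count and brood size.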

SMILES: CCC1CCCCN1c1cc(Oc2ccc3oc4ccccc4c3c2)ncn1 (stereo not drawn) [AKC 109]
- Follow-up HTS Run % Run (Caenorhabditis elegans [1]; Follow-up HTS Run): 121%
- Follow-up HTS Run Visual Score (Caenorhabditis elegans [1]; Follow-up HTS Run): L4/AD/B!
- Follow-up HTS Run mOD (Caenorhabditis elegans [1]; Follow-up HTS Run): 163 mOD
- Initial HTS Run % Run (Caenorhabditis elegans [1]; Initial HTS Run): 132%
- Initial HTS Run Visual Score (Caenorhabditis elegans [1]; Initial HTS Run): 1AD/B!
- Initial HTS Run mOD (Caenorhabditis elegans [1]; Initial HTS Run): 258 mOD
- 5 Day Visual Score V6 (Caenorhabditis elegans [2]; 0.3 μM (procedure of Example 2)): B (low broodsize (25-100 progeny))
- 5 Day Visual Score V2 (Caenorhabditis elegans [2]; 23.3 μM (procedure of Example 2)): L1
- 5 Day Visual Score V1 (Caenorhabditis elegans [2]; 70 μM (procedure of Example 2)): L1

From patent US20010049373A1, “Materials and methods for killing nematodes and nematode eggs” (priority 2000, published 2001)
